From PubChem BioAssay (NCI)
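GI50 marks 50% less growth. TGI: concentration producing complete growth inhibition.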

Tests used:
Test in all cases: NCI anticancer screen, dose series, 384-well format
[1] = system: SK-MEL-5 melanoma
[2] = system: M14 melanoma
[3] = system: HL-60(TB) leukemia
[4] = system: MDA-MB-435 melanoma
[5] = system: NCI-H460 NSCLC
[6] = system: NCI-H322M lung
[7] = system: SF-268 CNS
[8] = system: DU-145 prostate
[9] = system: U251 glioblastoma
[10] = system: ACHN renal
[11] = system: HOP-92 NSCLC
[12] = system: OVCAR-3 ovarian
[13] = system: UO-31 renal
[14] = system: NCI-H226 lung
[15] = system: SNB-75 CNS
[16] = system: A549 NSCLC
[17] = system: CCRF-CEM leukemia
[18] = system: COLO 205 colon
[19] = system: HCT-116 colon
[20] = system: MCF7 breast
[21] = system: CAKI-1 renal
[22] = system: NCI-H23 lung
[23] = system: NCI/ADR-RES ovarian
[24] = system: UACC-257 melanoma
[25] = system: TK-10 renal
[26] = system: MOLT-4 leukemia
[27] = system: BT-549 breast
[28] = system: MDA-MB-231 breast
[29] = system: OVCAR-4 ovarian
[30] = system: RXF 393 renal
[31] = system: SK-MEL-28 melanoma
[32] = system: UACC-62 melanoma
[33] = system: SN12C renal
[34] = system: 786-0 renal
[35] = system: SW-620 colon
[36] = system: EKVX NSCLC
[37] = system: NCI-H522 lung
[38] = system: SNB-19 CNS
[39] = system: OVCAR-8 ovarian
[40] = system: HS 578T breast
[41] = system: OVCAR-5 ovarian
[42] = system: HOP-62 NSCLC
[43] = system: SF-539 CNS
[44] = system: IGROV1 ovarian
[45] = system: LOX IMVI melanoma
[46] = system: MALME-3M melanoma
[47] = system: SK-OV-3 ovarian
[48] = system: MDA-MB-468 breast
[49] = system: HCT-15 colon
[50] = system: A498 renal
[51] = system: SF-295 CNS
[52] = system: RPMI-8226 leukemia
[53] = system: HCC-2998 colon
[54] = system: K-562 leukemia
[55] = system: PC-3 prostate
[56] = system: SR leukemia
[57] = system: KM12 colon
[58] = system: SK-MEL-2 melanoma
[59] = system: T-47D breast
[60] = system: HT29 colon

`N#CCCNc1nonc1-c1nc2ccccc2n1CC(=O)c1ccc(NC(=O)[C@@H](N)CCCCN)cc1` gave a GI50 [1] of 20.9 nM, a TGI [1] of 57.1 nM and a GI50 [2] of 19.9 nM. For the same molecule, the TGI [2] was 46.5 nM, the GI50 [3] was 20.7 nM and the TGI [3] was 35.8 nM. It also gave a GI50 [4] of 19.4 nM, a TGI [4] of 38.3 nM and a GI50 [5] of 22.1 nM. The TGI [5] was 47.3 nM, the GI50 [6] was 73 nM and the TGI [6] was > 100000 nM. The GI50 [7] was 13.6 nM, the TGI [7] was 47.4 nM and the GI50 [8] was 37.5 nM. It also gave a TGI [8] of 640 nM, a GI50 [9] of 32.8 nM and a TGI [9] of 148 nM. For the same molecule, the GI50 [10] was 63.6 nM, the TGI [10] was > 100000 nM and the GI50 [11] was 51.5 nM. The TGI [11] was 884 nM, the GI50 [12] was 19.9 nM and the TGI [12] was 45.7 nM. For the same molecule, the GI50 [13] was 60.1 nM, the TGI [13] was 11300 nM and the GI50 [14] was 90.3 nM. For the same molecule, the TGI [14] was 41900 nM, the GI50 [15] was 38.7 nM and the TGI [15] was 66600 nM. For the same molecule, the GI50 [16] was 36.9 nM, the TGI [16] was > 100000 nM and the GI50 [17] was 18.3 nM. It also gave a TGI [17] of 33.1 nM, a GI50 [18] of 27.8 nM and a TGI [18] of 78.3 nM. It also gave a GI50 [19] of 33.3 nM, a TGI [19] of 192 nM and a GI50 [20] of 39.4 nM. For the same molecule, the TGI [20] was 3270 nM, the GI50 [21] was 41.1 nM and the TGI [21] was > 100000 nM. For the same molecule, the GI50 [22] was 21.8 nM, the TGI [22] was 52.6 nM and the GI50 [23] was 18.2 nM. For the same molecule, the TGI [23] was 35.1 nM, the GI50 [24] was 59.1 nM and the TGI [24] was 22600 nM. The GI50 [25] was 83.4 nM, the TGI [25] was 93000 nM and the GI50 [26] was 16.8 nM. For the same molecule, the TGI [26] was 31.1 nM, the GI50 [27] was 22.2 nM and the TGI [27] was 54 nM. For the same molecule, the GI50 [28] was 135 nM, the TGI [28] was 78600 nM and the GI50 [29] was 86.1 nM. It also gave a TGI [29] of 66300 nM, a GI50 [30] of 20.8 nM and a TGI [30] of 53 nM. For the same molecule, the GI50 [31] was 78.1 nM, the TGI [31] was 46300 nM and the GI50 [32] was 31 nM. It also gave a TGI [32] of 344 nM, a GI50 [33] of 45.2 nM and a TGI [33] of 2170 nM. It also gave a GI50 [34] of 36.3 nM, a TGI [34] of 422 nM and a GI50 [35] of 42.4 nM. For the same molecule, the TGI [35] was 88400 nM, the GI50 [36] was 54.5 nM and the TGI [36] was > 100000 nM. For the same molecule, the GI50 [37] was 17.7 nM, the TGI [37] was 37 nM and the GI50 [38] was 37 nM. For the same molecule, the TGI [38] was > 100000 nM, the GI50 [39] was 32 nM and the TGI [39] was 117 nM. For the same molecule, the GI50 [40] was 17.4 nM, the TGI [40] was 36.9 nM and the GI50 [41] was 120 nM. The TGI [41] was > 100000 nM, the GI50 [42] was 38.8 nM and the TGI [42] was 1020 nM. It also gave a GI50 [43] of 20 nM, a TGI [43] of 45.7 nM and a GI50 [44] of 43.5 nM. The TGI [44] was > 100000 nM, the GI50 [45] was 46 nM and the TGI [45] was 407 nM. It also gave a GI50 [46] of 34.8 nM, a TGI [46] of 163 nM and a GI50 [47] of 39.9 nM. For the same molecule, the TGI [47] was 16200 nM, the GI50 [48] was 19.9 nM and the TGI [48] was 46.1 nM. For the same molecule, the GI50 [49] was 30 nM, the TGI [49] was 103 nM and the GI50 [50] was 30.6 nM. For the same molecule, the TGI [50] was > 100000 nM, the GI50 [51] was 26.3 nM and the TGI [51] was 71.4 nM. It also gave a GI50 [52] of 19.2 nM, a TGI [52] of 35.4 nM and a GI50 [53] of 24.9 nM. The TGI [53] was 74.1 nM, the GI50 [54] was 18.7 nM and the TGI [54] was 38.8 nM. It also gave a GI50 [55] of 38.9 nM and a TGI [55] of 948 nM.

In the case of `COc1cc2c(cc1F)C(c1ccccc1Cl)=Nc1c(n[nH]c1C)N2`, the GI50 [1] is reported as 236 nM, the TGI [1] is reported as 12000 nM and the GI50 [2] is reported as 339 nM. It also gave a TGI [2] of 15900 nM, a GI50 [3] of 166 nM and a TGI [3] of 306 nM. For the same molecule, the GI50 [56] was 103 nM, the TGI [56] was 238 nM and the GI50 [57] was 274 nM. For the same molecule, the TGI [57] was 12100 nM, the GI50 [6] was 4440 nM and the TGI [6] was 19900 nM. It also gave a GI50 [7] of 370 nM, a TGI [7] of 1770 nM and a GI50 [8] of 2020 nM. The TGI [8] was 13000 nM, the GI50 [9] was 453 nM and the TGI [9] was 12300 nM. For the same molecule, the GI50 [10] was 1350 nM, the TGI [10] was 13300 nM and the GI50 [11] was 960 nM. The TGI [11] was 8170 nM, the GI50 [12] was 225 nM and the TGI [12] was 823 nM. It also gave a GI50 [13] of 781 nM, a TGI [13] of 2080 nM and a GI50 [14] of 688 nM. The TGI [14] was 2660 nM, the GI50 [15] was 320 nM and the TGI [15] was 1390 nM. The GI50 [16] was 599 nM, the TGI [16] was 15600 nM and the GI50 [17] was 145 nM. It also gave a TGI [17] of 288 nM, a GI50 [18] of 367 nM and a TGI [18] of 12100 nM. The GI50 [19] was 393 nM, the TGI [19] was 15100 nM and the GI50 [20] was 502 nM. It also gave a TGI [20] of 19800 nM, a GI50 [21] of 512 nM and a TGI [21] of 4160 nM. For the same molecule, the GI50 [22] was 690 nM, the TGI [22] was 16500 nM and the GI50 [23] was 304 nM. It also gave a TGI [23] of 16000 nM, a GI50 [24] of 11400 nM and a TGI [24] of 23500 nM. It also gave a GI50 [58] of 459 nM, a TGI [58] of 4310 nM and a GI50 [25] of 860 nM. It also gave a TGI [25] of 10300 nM, a GI50 [26] of 146 nM and a TGI [26] of 283 nM. The GI50 [27] was 231 nM, the TGI [27] was 1080 nM and the GI50 [28] was 650 nM. For the same molecule, the TGI [28] was 16800 nM, the GI50 [29] was 2260 nM and the TGI [29] was 19800 nM. For the same molecule, the GI50 [30] was 207 nM, the TGI [30] was 1230 nM and the GI50 [31] was 778 nM. For the same molecule, the TGI [31] was 18600 nM, the GI50 [32] was 334 nM and the TGI [32] was 12000 nM. The GI50 [33] was 632 nM, the TGI [33] was 14200 nM and the GI50 [34] was 508 nM. The TGI [34] was 11900 nM, the GI50 [35] was 336 nM and the TGI [35] was 11100 nM. The GI50 [36] was 597 nM, the TGI [36] was 13800 nM and the GI50 [37] was 202 nM. The TGI [37] was 506 nM, the GI50 [38] was 726 nM and the TGI [38] was 15100 nM. It also gave a GI50 [40] of 190 nM, a TGI [40] of 464 nM and a GI50 [41] of 5320 nM. The TGI [41] was 19800 nM, the GI50 [42] was 521 nM and the TGI [42] was 14100 nM. For the same molecule, the GI50 [43] was 351 nM, the TGI [43] was 1500 nM and the GI50 [44] was 679 nM. It also gave a TGI [44] of 9690 nM, a GI50 [45] of 528 nM and a TGI [45] of 8780 nM. The GI50 [46] was 12600 nM, the TGI [46] was 25200 nM and the GI50 [47] was 757 nM. The TGI [47] was 16400 nM, the GI50 [59] was 794 nM and the TGI [59] was 17700 nM. It also gave a GI50 [48] of 180 nM, a TGI [48] of 387 nM and a GI50 [60] of 313 nM. For the same molecule, the TGI [60] was 12500 nM, the GI50 [49] was 304 nM and the TGI [49] was 19500 nM. The GI50 [50] was 498 nM, the TGI [50] was 17200 nM and the GI50 [51] was 452 nM. It also gave a TGI [51] of 16200 nM, a GI50 [52] of 253 nM and a TGI [52] of 7320 nM. For the same molecule, the GI50 [53] was 108 nM, the TGI [53] was 16700 nM and the GI50 [54] was 252 nM. It also gave a TGI [54] of 13600 nM, a GI50 [55] of 709 nM and a TGI [55] of 21100 nM.
